Measured values published in patent US12458630B2, “Combination therapy for cancer” (The Regents of the University of California, priority 2020, dated 2025).

What was measured:
human PDAC 1334 tumors = experiment: s.c. tumors in nude mice; assay type: in vivo, mouse; settings: EIPA 7.5 mg/kg, MRT68921 10 mg/kg, 15 days
Method: (§1) In some embodiments, to evaluate the effects of MP on tumor growth or survival in the autochthonous model, Kras^G12D;Ikkα^ΔPEC mice, at 4 weeks of age, were treated with vehicle or 10 mg/kg EIPA (Sigma) by i.p. injection every other day for 1 month. After that, surgically removed pancreata were weighed and used for further analysis and other mice were continued to maintain for survival. To evaluate the effects of MP on heterotopic xenografts, female homozygous BALB/c Nu/Nu nude mice were injected subcutaneously (s.c.) in both flanks at 7 weeks of age with 10^6 parental and IKKα^Δ MIA PaCa-2 cells or 1334 and 1444 cells mixed at a 1:1 dilution with BD Matrigel (BD Biosciences) in a total volume of 100 μl. Mice were treated with vehicle (DMSO in PBS), EIPA (7.5 mg/kg), MRT68921 (10 mg/kg) or MRT68921 and EIPA for 15 days when tumors attained an average volume of 50-100 mm^3. Volumes (1/2×(width^2×length)) of s.c. tumors were calculated on the basis of measurements using digital calipers after 15 days of treatment. To evaluate the combination effects of autophagy and MP inhibition on tumor growth, C57BL/6 mice were injected s.c. at 7 weeks of age with 10^6 parental, Ikkα KD, Nhe1 KD or Ikkα+Nhe1 DKD KC6141 cells in a total volume of 100 μl. Mice were treated with or without vehicle, EIPA (7.5 mg/kg), MRT68921 (10 mg/kg), or EIPA and MRT68921 for 21 days when tumors attained an average volume of 50-100 mm^3. Tumor volumes were calculated as above.

human PDAC 1444 tumors = experiment: s.c. tumors in nude mice; assay type: in vivo, mouse; settings: EIPA 7.5 mg/kg, MRT68921 10 mg/kg, 15 days
Method: as §1

KC6141 cells = experiment: NADPH/NADP measurement; assay type: cell-based, mouse; settings: 0.5 mM glucose, 24 hrs; for NADPH to NADP ratio: KC6141 cells on ECM
Method: Extracellular Matrix (ECM) Preparation. Skin fibroblasts were seeded on 6/12/96-well plates. One day after plating, cells were switched into DMEM (with pyruvate) with 10% dialysed FBS supplemented with or without 500 μM ^3H-proline and 100 μM Vitamin C. Cells were cultured for 6 days with media renewal every 24 h. After six days, skin fibroblasts were removed by washing in 1 ml or 500 μl or 100 μl per well PBS with 0.5% (v/v) Triton X-100 and 20 mM NH4OH. ECM was washed five times with PBS before plating KC6141 cells. The following day, KC6141 cells were switched into the indicated medium for 24 or 72 hrs. NADPH/NADP Measurement. NADPH and NADP measurement was performed using NADP/NADPH-Glo™ Assays (Promega #G9081) according to manufacturer's protocol. Briefly, KC6141 cells were grown on 96-well plates coated with ECM and treated as above. Then medium was removed and replaced with 50 μl of PBS and 50 μl of base solution with 1% DTAB. The plate was briefly mixed to ensure homogeneity and cell lysis. 50 μl of each sample was removed to an empty well for acid treatment. 25 μl per well of 0.4N HCl was added into these samples. All samples were incubated for 15 minutes at 60° C. and then equilibrated for 10 minutes at room temperature. 25 μl of 0.5M Trizma® base was added into each well of acid-treated cells to neutralize the acid. 50 μl of HCl/Trizma® solution was added to each well containing base-treated samples. Then 100 μl of NADP/NADPH-Glo™ Detection Reagent was added into each well and incubated for 30 minutes at room temperature. Luminescence was recorded using a luminometer.

| SMILES | tumor growth (human PDAC 1334 tumors) | tumor growth (human PDAC 1444 tumors) | NADPH to NADP ratio (KC6141 cells) | NADPH to NADP ratio in NRF2 ablated cells (KC6141 cells; Nrf2 KD KC6141 cells on ECM) |
| --- | --- | --- | --- | --- |
| CCN(c1nc(N)c(C(=O)N=C(N)N)nc1Cl)C(C)C [EIPA, 5-(N-ethyl-N-isopropyl) amiloride] | sensitive to EIPA | small effect | reduced | ineffective |
| CN1CCc2cc(Nc3ncc(C4CC4)c(NCCCNC(=O)C4CCC4)n3)ccc2C1 [MRT68921] | insensitive to MRT68921 | small effect | further elevated |  |
